How the values were obtained:
[1] = tested on: SARS-CoV-2; assay type: in vivo, transgenic mice B6.Cg-Tg(K18-ACE2)2Prlmn/J
[2] = tested on: sTREM-1; design: species or system transgenic mice B6.Cg-Tg(K18-ACE2)2Prlmn/J; conditions: mouse, in vivo, ip
[3] = tested on: cytokines/chemokines; design: species or system transgenic mice B6.Cg-Tg(K18-ACE2)2Prlmn/J; conditions: mouse, in vivo

In the case of LQEEDTGEYGCV (TLT-1 peptide) [LR12], the “bodyweight loss day 0 to day 10” value ([1]; 2 mg i.p. at t0+1 h, 24, 48, 72, 96 h, vs vehicle, LOCF, FIG. 2-3) is reported as “significant reduced bodyweight loss”, the “mortality (survival D0 to D10)” value ([1]; 2 mg i.p. at t0+1 h, 24, 48, 72, 96 h, vs vehicle, N=16 per treatment group, FIG. 1) is reported as “significant reduction in mortality” and the mean respiratory score ([1]; scale 0 (normal respiration) to 5 (dead mouse), up to day 10, 2 mg i.p., vehicle group 5, FIG. 5) is reported as 3. For the same sequence, the mean clinical score ([1]; scale 1 (healthy mouse) to 5 (dead mouse), up to day 10, 2 mg i.p., vehicle group 5, FIG. 4) was 3.5, the “plasma sTREM-1 level (median)” value [2] was 132.3 pg/mL and the “IP-10 plasma concentration vs vehicle” value [3] was “decrease”. For the same sequence, the “IFNα plasma concentration vs vehicle” value ([3]; ip) was “decrease”, the “IL-6 plasma concentration vs vehicle” value ([3]; ip) was “decrease” and the “IL-10 plasma concentration vs vehicle” value ([3]; ip) was “increase”.
